Experimental data taken from paper PMC10203105 (Communications Biology, 2023).

T1: AtDHDPR2 (dihydrodipicolinate reductase 2) (Arabidopsis thaliana, UniProt Q8LB01)
T1 construct: gene DAPB2; excludes the 53-amino-acid chloroplast transit peptide; tag cleaved
T1 sequence (Q8LB01 54-349): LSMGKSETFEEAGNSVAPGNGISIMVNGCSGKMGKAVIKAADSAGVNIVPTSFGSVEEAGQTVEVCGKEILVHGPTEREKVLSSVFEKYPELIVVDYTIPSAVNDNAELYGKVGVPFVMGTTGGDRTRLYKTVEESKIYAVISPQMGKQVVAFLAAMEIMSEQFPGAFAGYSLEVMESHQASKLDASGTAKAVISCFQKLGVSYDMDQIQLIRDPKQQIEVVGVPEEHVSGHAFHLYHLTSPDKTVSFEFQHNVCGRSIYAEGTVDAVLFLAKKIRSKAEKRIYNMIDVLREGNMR

T2: AtDHDPR1 (dihydrodipicolinate reductase 1) (Arabidopsis thaliana, UniProt O80574)
T2 construct: gene DAPB1; excludes the first 51 amino acids (chloroplast transit peptide); tag cleaved
T2 sequence (O80574 52-347): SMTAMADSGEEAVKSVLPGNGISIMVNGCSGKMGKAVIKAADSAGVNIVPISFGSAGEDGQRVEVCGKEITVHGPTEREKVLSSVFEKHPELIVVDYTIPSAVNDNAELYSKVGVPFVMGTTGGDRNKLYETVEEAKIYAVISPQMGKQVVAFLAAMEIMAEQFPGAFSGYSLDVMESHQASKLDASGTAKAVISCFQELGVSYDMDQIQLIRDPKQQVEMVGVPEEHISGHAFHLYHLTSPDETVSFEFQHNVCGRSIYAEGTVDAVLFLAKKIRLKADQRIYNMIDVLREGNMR

B1: AtDHDPR1 (dihydrodipicolinate reductase 1) (Arabidopsis thaliana) (protein)
chain: T2 sequence (O80574 52-347)

Columns and labels:
[1] = biological target: T1, AtDHDPR2 (dihydrodipicolinate reductase 2); assay: DHDPS-DHDPR coupled spectrophotometric assay (NADPH oxidation, […] nm); format: biochemical
[2] = biological target: T2, AtDHDPR1 (dihydrodipicolinate reductase 1); assay: as above; format: biochemical
purified protein [3] = substrate: NC(=O)C1=CN([C@@H]2O[C@H](COP(=O)(O)OP(=O)(O)OC[C@H]3O[C@@H](n4cnc5c(N)ncnc54)[C@H](OP(=O)(O)O)[C@@H]3O)[C@@H](O)[C@H]2O)C=CC1; assay: purified protein; conditions: varied: cofactor
purified protein [4] = substrate: O=C(O)C1=NC(C(=O)O)CC=C1; assay: purified protein; conditions: NADPH

| Molecule | IC50 [1] [µM] | IC50 [2] [µM] | Km (purified protein [3]) [µM] | Km (purified protein [4]) [µM] |
| --- | --- | --- | --- | --- |
| O=C(O)c1cccc(C(=O)O)n1 [2,6-PDC, 2,6-pyridinedicarboxylic acid] | 470 | 140 | – | – |
| B1 | – | – | 16 ± 2.6 | 37 ± 6.5 |
